In patent publication US9980927B2, “Use of tapentadol for inhibiting and/or treating depression and anxiety” (Gruenenthal GmbH, priority 2011, dated 2018):

Assays:
Type in all cases: in vivo, human patients
[1] = tested on: patients with inadequately managed, severe chronic low back pain with or without a neuropathic pain component; assay: Clinical global impression of change (CGIC), same trial
Source text: This was a multicenter, multinational, open-label, effectiveness phase IIIb trial to evaluate effectiveness and safety of tapentadol prolonged release treatment in patients with inadequately managed, severe chronic low back pain with or without a neuropathic pain component. Patients taking WHO Step II analgesics discontinued those analgesics before starting study medication; patients taking Step I analgesics and/or centrally acting co-analgesics continued on the same dose. […] All patients received tapentadol prolonged release (50-250 mg bid) for up to 12 weeks (5-week titration period and a 7-week maintenance period). Tapentadol immediate release (IR) 50 mg (twice a day, hours apart) was permitted (combined total daily dose of tapentadol prolonged release and tapentadol IR, 500 mg/day). The primary efficacy endpoint was the change from Baseline to Week 6 (when tapentadol prolonged release doses were stable) in average pain intensity on the 11-point NRS-3 using the last observation carried forward (LOCF) for imputing missing scores. The painDETECT questionnaire was used to evaluate the likelihood of a neuropathic pain component of low back pain; patients were classified as painDETECT “negative,” “unclear,” or “positive.” The population of patients classified as painDETECT negative was limited to approximately 30% of the total population.
All subjects completed Short Form-36 (SF-36) and EuroQol-5 Dimension (EQ-5D) questionnaires and the Hospital Anxiety and Depression Scale (HADS). The Patient Global Impression of Change (PGIC) and Clinical global impression of change (CGIC) were also used as secondary endpoints. For both tests, patients completed the statement, “since I began trial treatment, I would rate my overall condition as,” using 7 possible responses (“very much worse” to “very much improved”). Adverse events were recorded throughout the trial.

[2] = tested on: patients with inadequately managed, severe chronic low back pain with or without a neuropathic pain component; assay: Short Form 36 Health Survey (SF-36) scores, same trial; settings: Baseline to Week 12, all P<0.05
Source text: (§1) This was a multicenter, multinational, open-label, effectiveness phase IIIb trial to evaluate effectiveness and safety of tapentadol prolonged release treatment in patients with inadequately managed, severe chronic low back pain with or without a neuropathic pain component. Patients taking WHO Step II analgesics discontinued those analgesics before starting study medication; patients taking Step I analgesics and/or centrally acting co-analgesics continued on the same dose. […] All patients received tapentadol prolonged release (50-250 mg bid) for up to 12 weeks (5-week titration period and a 7-week maintenance period). Tapentadol immediate release (IR) 50 mg (twice a day, hours apart) was permitted (combined total daily dose of tapentadol prolonged release and tapentadol IR, 500 mg/day). The primary efficacy endpoint was the change from Baseline to Week 6 (when tapentadol prolonged release doses were stable) in average pain intensity on the 11-point NRS-3 using the last observation carried forward (LOCF) for imputing missing scores. […]
(§2) All subjects completed Short Form-36 (SF-36) and EuroQol-5 Dimension (EQ-5D) questionnaires and the Hospital Anxiety and Depression Scale (HADS). […] Adverse events were recorded throughout the trial.

[3] = tested on: patients with inadequately managed, severe chronic low back pain with or without a neuropathic pain component; assay: EuroQol-5 Dimension (EQ-5D) health status index score, same trial; settings: Baseline to Week 12
Source text: as §1, §2

SMILES: CC[C@@H](c1cccc(O)c1)[C@@H](C)CN(C)C [tapentadol, (−)-(1R,2R)-3-(3-dimethylamino-1-ethyl-2-methyl-propyl)-phenol]
- percentage of patients reporting “very much improved” or “much improved” on the CGIC ([1]; Week 1 (26/172)): 15.1%
- percentage of patients reporting “very much improved” or “much improved” on the CGIC ([1]; Week 6 (70/138)): 50.7%
- percentage of patients reporting “very much improved” or “much improved” on the CGIC ([1]; Week 12 (62/91)): 68.2%
- SF-36 physical functioning, bodily pain, general health, role-emotional and physical component summary scores ([2]; patients painDETECT negative or unclear/positive): improved
- SF-36 role-physical, vitality, social functioning, mental health, reported health transition and mental component summary scores ([2]; patients painDETECT unclear/positive): also improved
- mean (SD) change in the EQ-5D health status index score ([3]; patients painDETECT negative, P=0.0022): 0.18
- mean (SD) change in the EQ-5D health status index score ([3]; patients painDETECT positive, P<0.0001): 0.36 (0.32)
